Measured values taken from ChEMBL document CHEMBL1130657, “Synthesis of novel fluorinated coumarins: excellent UV-light excitable fluorescent dyes” (Bioorg Med Chem Lett, 1998).

experiment: Photostability, pKa was evaluated; type: physicochemical

| Compound | pKa |
| --- | --- |
| O=C(O)c1cc2cc(F)c(O)c(F)c2oc1=O | 3.7 |
| O=C(O)c1cc2ccc(O)cc2oc1=O | 7.5 |
| CCOC(=O)c1cc2cc(F)c(O)c(F)c2oc1=O | 3.8 |
| Cc1c(CC(=O)O)c(=O)oc2c(F)c(O)c(F)cc12 | 4.7 |
| Cc1cc(=O)oc2c(F)c(O)ccc12 | 6.4 |
